Source: US20250144067A1, “PERSONALIZED STARVATION THERAPY FOR CANCER” (Faeth Therapeutics, Inc., priority 2021, published 2025)
Where a name gives a salt, the structure may show the parent alone. Read-outs that look alike come from different tables or passages of the source.

Assays:
[1] = tested on: NCI-H292 lung cancer cells; experiment: FDA drug screening, complete media vs cholesterol-free media with simvastatin (TABLE 2); assay type: cell-based, human
[2] = tested on: NCI-H292 lung cancer cells; experiment: FDA drug screening, complete media vs cholesterol-free media without statin (TABLE 1); assay type: cell-based, human
[3] = NCI-H292 cells, FDA library drug in cholesterol-free media with simvastatin 0.04 μM
[4] = NCI-H292 cells, FDA library drug in complete media
[5] = complete media vs cholesterol-free media + simvastatin (0.04 μM), >0 enhanced anti-cancer activity, about 0 neutral, <0 antagonist
[6] = Complete minus Cholesterol-free, >0 enhanced anti-cancer activity, about 0 neutral, <0 antagonist
[7] = NCI-H292 cells, cholesterol-free media without statin
[8] = Complete minus Cholesterol-free, greater than 0 enhanced anti-cancer activity, about 0 neutral, below 0 antagonist
[9] = NCI-H292 cells, FDA drug library screen, cholesterol-free media without statin
[10] = NCI-H292 cells, FDA drug library screen, complete media
[11] = NCI-H292 cells, FDA drug library screen, cholesterol-free media with simvastatin 0.04 μM
[12] = NCI-H292 cells, cholesterol-free media without statin, FDA drug library screen
[13] = NCI-H292 cells, complete media, FDA drug library screen
[14] = complete vs cholesterol-free media, >0 enhanced anti-cancer activity, about 0 neutral, <0 antagonist
[15] = NCI-H292 cells, drug in cholesterol-free media with simvastatin 0.04 μM
[16] = NCI-H292 cells, drug in complete media
[17] = Complete minus Cholesterol-free, greater than 0 enhanced anti-cancer activity, about 0 neutral, below 0 antagonists
[18] = NCI-H292 cells in cholesterol-free media without statin
[19] = NCI-H292 cells in complete media
[20] = NCI-H292 cells, cholesterol-free media with simvastatin 0.04 μM, cell growth value in FDA drug screen
[21] = NCI-H292 cells, complete media, cell growth value in FDA drug screen
[22] = complete media minus cholesterol-free media + simvastatin, >0 enhanced anti-cancer activity, about 0 neutral, <0 antagonist
[23] = complete vs cholesterol-free media, greater than 0 enhanced anti-cancer activity, about 0 neutral, below 0 antagonists
[24] = complete media vs cholesterol-free media + simvastatin (0.04 μM), […]
[25] = complete vs cholesterol-free media, […]
[26] = NCI-H292 cells, cholesterol-free media with simvastatin 0.04 μM, FDA drug library screen (TABLE 2)
[27] = NCI-H292 cells, complete media, FDA drug library screen (TABLE 2)
[28] = complete media minus cholesterol-free media + simvastatin (0.04 μM), >0 enhanced anti-cancer activity, about 0 neutral, <0 antagonist

Molecule: O=C(CCCN1CC=C(n2c(=O)[nH]c3ccccc32)CC1)c1ccc(F)cc1 [Droperidol]
- Cholesterol-free media + simvastatin (0.04 μM) [1, 3]: 1.065
- Complete Media [1, 4]: 0.7994
- Difference [1, 5]: −0.27
- Difference [2, 6]: −0.22
- Cholesterol-free [2, 7]: 1.218
- Complete ([2]; NCI-H292 cells, complete media): 1.002

Molecule: O=C(O)c1cc(O)c(O)c(O)c1 [Gallic acid]
- Cholesterol-free media + simvastatin (0.04 μM) [1, 3]: 2.089
- Complete Media [1, 4]: 1.613
- Difference [1, 5]: −0.48
- Difference [2, 8]: −0.08
- Cholesterol-free [2, 9]: 1.301
- Complete [2, 10]: 1.222

Molecule: CN(C)C(=O)c1cc2cnc(Nc3ccc(N4CCNCC4)cn3)nc2n1C1CCCC1 [Ribociclib hydrochloride]
- Cholesterol-free media + simvastatin (0.04 μM) [1, 11]: 0.9857
- Complete Media [1, 10]: 0.8306
- Difference [1, 5]: −0.16
- Cholesterol-free [2, 12]: 1.177
- Complete [2, 13]: 1.5
- Difference [2, 14]: 0.32

Molecule: FC(F)(F)c1ccc(CNc2ccc(Cc3c[nH]c4ncc(Cl)cc34)cn2)cn1 [Pexidartinib]
- Cholesterol-free media + simvastatin (0.04 μM) [1, 15]: 1.767
- Complete Media [1, 16]: 1.579
- Difference [1, 5]: −0.19
- Difference [2, 17]: −0.77
- Cholesterol-free [2, 18]: 1.609
- Complete [2, 19]: 0.8353

Molecule: CC(C)(C)c1cc(NC(=O)Nc2ccc(-c3cn4c(n3)sc3cc(OCCN5CCOCC5)ccc34)cc2)no1 [Quizartinib]
- Cholesterol-free media + simvastatin (0.04 μM) [1, 15]: 1.022
- Complete Media [1, 16]: 0.8076
- Difference [1, 5]: −0.21
- Cholesterol-free [2, 12]: 0.663
- Complete [2, 13]: 0.7657
- Difference [2, 14]: 0.10

Molecule: CCCN1CCCC[C@H]1C(=O)Nc1c(C)cccc1C [Ropivacaine]
- Cholesterol-free media + simvastatin (0.04 μM) [1, 15]: 0.9386
- Complete Media [1, 16]: 0.7628
- Difference [1, 5]: −0.18
- Difference [2, 6]: −0.20
- Cholesterol-free [2, 7]: 1.098
- Complete ([2]; NCI-H292 cells, complete media): 0.8949

Molecule: CC(=O)OCC(=O)[C@@]1(O)CC[C@H]2[C@@H]3CCC4=CC(=O)CC[C@]4(C)[C@H]3C(=O)C[C@@]21C [Cortisone acetate]
- Cholesterol-free media + simvastatin (0.04 μM) [1, 20]: 1.003
- Complete Media [1, 21]: 1.101
- Difference [1, 22]: 0.10
- Difference [2, 17]: −1.35
- Cholesterol-free [2, 18]: 2.332
- Complete [2, 19]: 0.9837

Molecule: Cc1ccc(C(=O)c2ccc(CC(=O)O)n2C)cc1 [Tolmetin]
- Cholesterol-free media + simvastatin (0.04 μM) [1, 3]: 1.718
- Complete Media [1, 4]: 1.392
- Difference [1, 5]: −0.33
- Cholesterol-free [2, 7]: 0.9799
- Complete ([2]; NCI-H292 cells, complete media): 0.6144
- Difference [2, 23]: −0.37

Molecule: NCCCC(O)(P(=O)(O)O)P(=O)(O)O [Alendronate (sodium hydrate)]
- Cholesterol-free media + simvastatin (0.04 μM) [1, 11]: 0.388
- Difference [1, 22]: 0.78
- Cholesterol-free [2, 12]: 0.1249
- Complete [2, 13]: 0.2776
- Difference [2, 14]: 0.15

Molecule: Vonoprazan (Fumarate)
- Complete Media [1, 4]: 0.7838
- Difference [1, 24]: −0.27
- Cholesterol-free [2, 12]: 1.164
- Complete [2, 13]: 1.405
- Difference [2, 25]: 0.24

Molecule: Enasidenib (mesylate)
- Cholesterol-free media + simvastatin (0.04 μM) ([1]; NCI-H292 cells, cholesterol-free media with simvastatin 0.04 μM, […]): 1.526
- Complete Media ([1]; NCI-H292 cells, complete media, […]): 1.616
- Difference ([1]; complete media minus cholesterol-free media + simvastatin, […]): 0.09
- Difference ([2]; Complete minus Cholesterol-free, […]): −0.61
- Cholesterol-free [2, 18]: 1.538
- Complete [2, 19]: 0.9281

Molecule: COc1nccnc1NS(=O)(=O)c1ccc(N)cc1 [Sulfalene]
- Cholesterol-free media + simvastatin (0.04 μM) [1, 15]: 1.16
- Complete Media [1, 16]: 0.9534
- Difference [1, 5]: −0.21
- Difference [2, 6]: −0.03
- Cholesterol-free [2, 12]: 1.1
- Complete [2, 13]: 1.067

Molecule: O=C(O)CSCC(=O)NC1CCSC1=O (stereo not shown) [Erdosteine]
- Cholesterol-free media + simvastatin (0.04 μM) [1, 20]: 1.196
- Complete Media [1, 21]: 1.238
- Difference [1, 22]: 0.04
- Difference [2, 6]: 0.06
- Cholesterol-free [2, 12]: 1.459
- Complete [2, 13]: 1.516

Molecule: CN1CC(O)C2=C/C(=N/NC(N)=O)C(=O)C=C21 (stereo not shown) [Carbazochrome]
- Cholesterol-free media + simvastatin (0.04 μM) [1, 11]: 1.082
- Complete Media [1, 10]: 1.238
- Difference [1, 22]: 0.16
- Difference [2, 8]: −0.14
- Cholesterol-free [2, 9]: 1.112
- Complete [2, 10]: 0.9668

Molecule: O=c1ccc2ccccc2o1 [Coumarin]
- Cholesterol-free media + simvastatin (0.04 μM) [1, 26]: 0.8441
- Complete Media [1, 27]: 0.7948
- Difference [1, 28]: −0.05
- Cholesterol-free [2, 12]: 0.9742
- Complete [2, 13]: 1.716
- Difference [2, 14]: 0.74

Molecule: c1cnc(N2CCN(Cc3ccc4c(c3)OCO4)CC2)nc1 [Piribedil]
- Cholesterol-free media + simvastatin (0.04 μM) [1, 15]: 1.189
- Complete Media [1, 16]: 0.9878
- Difference [1, 5]: −0.20
- Cholesterol-free [2, 12]: 0.8521
- Complete [2, 13]: 1.367
- Difference [2, 14]: 0.51

Molecule: COc1ccc(CN2C3CC2CN(c2ccc(-c4cc(OCC(C)(C)O)cn5ncc(C#N)c45)cn2)C3)cn1 [Selpercatinib]
- Cholesterol-free media + simvastatin (0.04 μM) [1, 11]: 1.485
- Complete Media [1, 10]: 1.627
- Difference [1, 22]: 0.14
- Difference [2, 6]: −0.01
- Cholesterol-free [2, 12]: 0.9224
- Complete [2, 13]: 0.9158

Molecule: CCOC(=O)C1=C(C)NC(C)=C(C(=O)OC)C1c1cccc(Cl)c1Cl (stereo not shown) [Felodipine]
- Cholesterol-free media + simvastatin (0.04 μM) [1, 15]: 1.148
- Complete Media [1, 16]: 0.9051
- Difference [1, 5]: −0.24
- Difference [2, 6]: −0.19
- Cholesterol-free [2, 7]: 1.202
- Complete ([2]; NCI-H292 cells, complete media): 1.01

Molecule: CCOc1ccc(Cc2cc([C@]34OC[C@](CO)(O3)[C@@H](O)[C@H](O)[C@H]4O)ccc2Cl)cc1.O=C1CC[C@@H](C(=O)O)N1 [Ertugliflozin L-pyroglutamic acid]
- Cholesterol-free media + simvastatin (0.04 μM) [1, 15]: 1.012
- Complete Media [1, 16]: 0.8266
- Difference [1, 24]: −0.19
- Cholesterol-free [2, 12]: 1.319
- Complete [2, 13]: 1.576
- Difference [2, 25]: 0.26

Molecule: Nc1nc2[nH]cc(CCc3ccc(C(=O)N[C@@H](CCC(=O)O)C(=O)O)cc3)c2c(=O)[nH]1 [Pemetrexed]
- Cholesterol-free media + simvastatin (0.04 μM) [1, 26]: 0.2196
- Complete Media [1, 27]: 0.2004
- Difference [1, 28]: −0.02
- Difference [2, 6]: −0.01
- Cholesterol-free [2, 12]: 0.1659
- Complete [2, 13]: 0.1596

Molecule: CC(=O)O[C@]1(C(C)=O)CC[C@H]2[C@@H]3C[C@H](C)C4=CC(=O)CC[C@]4(C)[C@H]3CC[C@@]21C [Medroxyprogesterone acetate]
- Cholesterol-free media + simvastatin (0.04 μM) [1, 11]: 1.001
- Complete Media [1, 10]: 0.9291
- Difference [1, 5]: −0.07
- Cholesterol-free [2, 7]: 1.058
- Complete ([2]; NCI-H292 cells, complete media): 0.6058
- Difference [2, 23]: −0.45

Molecule: CC(C)c1cccc(C(C)C)c1O [Propofol]
- Cholesterol-free media + simvastatin (0.04 μM) [1]: 1.559
- Complete Media [1]: 1.224
- Difference [1]: −0.33
- Cholesterol-free [2]: 0.9745
- Complete [2]: 0.7898
- Difference [2]: −0.18
